Patent US7799758B2, “Peptides and peptide derivatives as well as pharmaceutical compositions containing the same” (priority 2006, dated 2010)
No end group written: not given here.

Tested on: mouse-adapted Dengue virus (DEN-2, strain P23085)
Assay: model of Dengue virus infection in mice
Assay type: in vivo
Details: BALB/c mice infected s.c. with DEN-2 at 1-2 LD50, 4.8 mg/kg/day i.m. once a day for 5 days from day 3, read at day 10, p < 0.05
Protocol: A further possibility for establishing the biological effect in vivo is the reduction or complete suppression of mortality because of an infection with haemolytic viruses or bacteria. For this purpose, mice are, as described in Example 8, for instance infected with a dose of Dengue viruses, wherein 50% of the animals die within a period of 5-20 days after infection. The inventive compounds bring about a reduction of this mortality at a dose ranging from 0.001 to 500 mg/kg body weight, preferably at a dose ranging from […] body weight.
The biological effect of the compound of Example 3 was established in a model of Dengue virus infection in mice. 5-week-old male BALB/c mice were divided into 2 groups. All animals were infected subcutaneously with a mouse-adapted Dengue virus (DEN-2, strain P23085 at a dose of 1-2 LD50. 15 mice received 0.1 ml of 0.8% saline as intramuscular injection (control). The treated animals received 4.8 mg/kg/day of the agent of Example 3 as an intramuscular injection (diluted in 0.1 ml of 0.8% saline) once a day for 5 days, starting on day 3 after the virus infection.
At the end of the treatment period (day 10) the survival rates were compared.

Gly-His-Arg-Pro-Leu-Asp-Lys-Lys-Arg-Glu-Glu-Ala-Pro-Ser-Leu-Arg-Pro-Ala-Pro-Pro-Pro-Ile-Ser-Gly-Gly-Gly-Tyr-Arg-Cys-(S-succinimido-PEG20K)-amide (GHRPLDKKREEAPSLRPAPPPISGGGYRC(succinimido‑PEG20K)-NH2) [Example 3]
Mortality Percentage: 0%
Mortality (dead/total animals): 0/10
